Converted amounts (≈) assume the structure as drawn. Peptide text beside a SMILES is read from it.
Experiments:
MRSA-OS = assay: microbe, parasite or virus in culture; format: cell-based, Staphylococcus aureus; conditions: -OS, 24 h
In short: (§1)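 MIC was determined by CLSI broth microdilution in cation-adjusted Mueller-Hinton broth. Peptides or antibiotics were tested in 1:2 serial dilutions against a final inoculum of 5 × 10^5 CFU/ml, prepared by direct colony suspension from overnight TSA cultures grown at 37 °C.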

[1] = tested on: S. epidermidis ATCC 12228; format: cell-based, Staphylococcus epidermidis; conditions: ATCC 12228, 24 h
Text: (§2) A range of Gram-positive and Gram-negative laboratory- and clinical-strain bacteria were used for the experiments. These included laboratory-strain methicillin-sensitive S. aureus (MSSA; including SH1000 and ATCC SA29213), laboratory-strain MRSA (ATCC MRSA43300), clinical-strain MRSA (MRSA-OS; an IK isolate), laboratory-strain methicillin-sensitive Staphylococcus epidermidis (MSSE; ATCC SE12228), laboratory invasive-strain P. aeruginosa (PAO1-L), and clinical cytotoxic-strain P. aeruginosa (PA-OS; an IK isolate).
In vitro antimicrobial efficacy of the antibiotics and designed HDPs was determined using an established MIC assay with broth microdilution method approved by the Clinical and Laboratory Standards Institute (CLSI)[64]. Briefly, the microorganisms were cultured on Tryptone Soya Agar (TSA) and incubated overnight for 18–21 h at 37 °C. Bacterial inoculums were subsequently prepared using the direct colony suspension method. Three to five bacterial colonies were obtained from the agar plate and inoculated into an Eppendorf tube containing 1 ml of cation-adjusted Muller-Hinton broth (caMHB), consisting of 20–25 mg/L calcium ions (Ca^2+) and 10–12.5 mg/L magnesium ions (Mg^2+). […]

in vitro = format: cell-based, human; conditions: human
Procedure: Cell viability and cytotoxicity of antibiotics and peptides were determined against human corneal epithelial cells (HCE-2, CRL-11135, ATCC, Manassas, Virginia, USA) using cell-counting-kit-8 (CCK-8) assay (Sigma Aldrich, Merck Life Science UK Limited, Dorset, UK) and lactate dehydrogenase (LDH) assay (ThermoFisher Scientific, UK), respectively, as per manufacturer’s guidelines. HCE-2 cells were cultured and seeded into a 96-well plate at a density of 7.5 × 10^3 cells/well and allowed to attach overnight and grew to 80–90% confluency in keratinocyte serum free medium (KSFM) supplemented with human recombinant epidermal growth factor, bovine pituitary extract, hydrocortisone, and insulin. Once the confluency reached 80–90%, the cells were incubated with treatment for 3 h before OD450 measurement was taken using BMG Clariostar microplate reader (BMG Labtech Ltd., Aylesbury, UK). Appropriate controls were used, including 0.1% Triton X-100 as positive control and KSFM as negative control. Cell viability was calculated using the following formula: [([…]) × 100; I = intensity] and cytotoxicity was calculated using the following formula: [((Itreatment – INC)/(IPC – INC)) × 100].

Hemolytic assay = format: cell-based; conditions: human, Hmax (%): percentage of hemolysis at 200 µg/ml
Procedure: Ethical approval was obtained from the Local Research Ethics Committee of University of Nottingham prior to the experiment (Ref: 176-1812). The experiment was conducted in accordance with the relevant guidelines and regulations. Hemolytic assay was performed according to the previously established protocol. Briefly, 5 ml of fresh human blood was collected from healthy participants with written informed consent, in an EDTA tube and centrifuged for 10 min at 1300g at 10 °C for separation of plasma. The remaining erythrocytes were rinsed and centrifuged further three times in Ca^2+/Mg^2+ free Dulbecco’s phosphate-buffered saline (DPBS). Subsequently, erythrocytes were diluted to 8% v/v in DPBS and incubated with 100 μl of treatment, positive control (1% Triton X-100) and negative control (DPBS), all in 1:1 ratio, for 1 h (final erythrocytes concentration = 4% v/v). After 1 h of incubation, the plate was centrifuged at 500×g for 5 min and 100 μl of supernatant of each well was transferred into a 96-well plate for measurement at OD540. Hemolysis (%) was calculated as [(Itreatment – INC)/(IPC – INC)] × 100.

MSSA = format: cell-based, Staphylococcus aureus
Text: as §2
(§3) In vitro antimicrobial efficacy of the antibiotics and designed HDPs was determined using an established MIC assay with broth microdilution method approved by the Clinical and Laboratory Standards Institute (CLSI)[64]. Briefly, the microorganisms were cultured on Tryptone Soya Agar (TSA) and incubated overnight for 18–21 h at 37 °C. Bacterial inoculums were subsequently prepared using the direct colony suspension method. Three to five bacterial colonies were obtained from the agar plate and inoculated into an Eppendorf tube containing 1 ml of cation-adjusted Muller-Hinton broth (caMHB), consisting of 20–25 mg/L calcium ions (Ca^2+) and 10–12.5 mg/L magnesium ions (Mg^2+). The bacterial suspension was adjusted to achieve a turbidity equivalent to 0.1 OD600 or 0.5 MacFarland, containing ~ 1.5 × 10^8 colony-forming unit (CFU)/ml, which was then further diluted in 1:150 in caMHB to reach a final bacterial concentration of ~ 1 × 10^6 colony forming units (CFU)/ml. Each treatment (peptide or antibiotic) was prepared in 1:2 serial dilution in 96-well polypropylene microplates (with a final treatment volume of 50 μl per well), followed by the addition of 50 μl of 1 × 10^6 CFU/ml bacteria into each well (with a final bacterial concentration of 5 × 10^5 CFU/ml).

S. aureus ATCC 29213 = format: cell-based, Staphylococcus aureus; conditions: ATCC 29213, 24 h
Text: as §2, §3

MRSA = format: cell-based, Staphylococcus aureus
Text: as §2, §3

MRSA ATCC 43300 = format: cell-based, Staphylococcus aureus; conditions: ATCC 43300, 24 h
Text: as §2, §3

P. aeruginosa PA-OS = assay: microbe, parasite or virus in culture; format: cell-based; conditions: PA-OS, 24 h
In short: as §1

corneal epithelial wound = conditions: mouse, in vivo
Procedure: The in vivo studies were conducted in two stages, namely the corneal wound healing study (for safety) and BK study (for efficacy), based on previously established protocols[54],[65]. […] The mice were maintained and treated in compliance with the Guide for the Care and Use of Laboratory Animals (National Research Council) and the ARVO statement for the Use of Animals in Ophthalmic and Vision Research. […]
In vivo safety of CaD23 (in 0.03%, 0.05% or 0.1%), and PBS (negative control) was first determined in a mouse corneal epithelial wound healing model. In the absence of in vivo pilot data of our designed HDPs, the sample size was calculated based on a previous study. […]
All mice were randomly allocated to each of the four treatment groups (n = 4 mice/group). […] Corneal epithelial defect was assessed using a cobalt-blue filter-equipped slit-lamp biomicroscopy and photography with staining with topical sodium fluorescein 1% at baseline (immediately post-debridement) and daily up to 3 days post-treatment. Fluorescein-stained images of the corneal wound defect were analyzed using ImageJ software (https://imagej.nih.gov/ij/)[68]. The main outcome measure was the wound size at the end of day 1, 2 and 3 [expressed as % of the original wound size in mean and standard deviation (SD)]. […]

With `CC[C@H](C)[C@H](NC(=O)[C@H](CCCNC(=N)N)NC(=O)[C@H](CCC(N)=O)NC(=O)[C@@H](NC(=O)[C@@H](NC(=O)[C@H](CCCNC(=N)N)NC(=O)[C@@H](N)CCCCN)[C@@H](C)CC)C(C)C)C(=O)N[C@@H](CCCCN)C(=O)N[C@@H](CC(=O)O)C(=O)N[C@@H](Cc1c[nH]c2ccccc12)C(=O)N[C@@H](CC(C)C)C(=O)N[C@@H](CCCNC(=N)N)C(=O)N[C@@H](CCCCN)C(=O)N[C@@H](CC(C)C)C(=O)N[C@@H](CS)C(=O)N[C@@H](CCCCN)C(=O)N[C@@H](CCCCN)C(=O)N[C@@H](Cc1c[nH]c2ccccc12)C(=O)O` [CaD23, KRIVQRIKDW LRKLCKKW] (H-KRIVQRIKDWLRKLCKKW-OH; N-terminus and C-terminus assumed) the MIC (MRSA-OS) was 100 µg/mL (≈ 41.7 µM), the MIC [1] was 5.2 µM (≈ 12.5 µg/mL) and the CC50 at 3 h (in vitro) was greater than 200 µg/mL. The hemolysis at 1 h, 200 µg/ml (Hemolytic assay) was less than 10%, the MIC (MSSA) was 12.5 to 25.0 µg/mL and the MIC (S. aureus ATCC 29213) was 50 µg/mL (≈ 20.9 µM). The MIC (MRSA) was 25 µg/mL (≈ 10.4 µM), the MIC (MRSA ATCC 43300) was 100 µg/mL (≈ 41.7 µM) and the MIC (P. aeruginosa PA-OS) was 50 µg/mL (≈ 20.9 µM). The “Mean wound size (% of original wound size)” value (corneal epithelial wound) was 28.5 ± 19.9%.

— paper PMC8443647, “Hybrid derivative of cathelicidin and human beta defensin-2 against Gram-positive bacteria: A novel approach for the treatment of bacterial keratitis” (Scientific Reports, 2021)
